This note sets out measurements from US12152038B2, “Vasopressin receptor antagonists and products and methods related thereto” (Neumora Therapeutics, Inc., priority 2017, dated 2024).

Structures are written as SMILES. Read-outs that look alike come from different tables or passages of the source. Bounds are passed on as bounds.

Data set [1] concerns the target T1, human Arginine Vasopressin Receptor V2 (AVPR2) (Homo sapiens, UniProt P30518).
T1 construct: host or cells: 1321N1 (cAMPZen V2 assay ready frozen cells)
Briefly: Vasopressin V2 receptor antagonist assay (TR-FRET cAMP, 1321N1 cells). The data set is classed as cell-based. (Time-resolved FRET reads energy transfer from a long-lived donor to a nearby acceptor.)

The next data set deals with T2, MDR1 (P-glycoprotein) (Homo sapiens, UniProt P08183).
T2 construct: host or cells: MDCK (MDR1-MDCK; wild-type MDCK as comparator)
Briefly: MDR1-MDCK permeability and efflux assay (Papp, efflux ratio, effective efflux ratio). It counts as in vitro ADME. Conditions: for Papp AB MDR1 / Papp A→B at 1 h, 10 μM: A->B; for EER (Effective Efflux Ratio): ER(MDR1-MDCK)/ER(wild-type MDCK); for ER MDR1 (Efflux Ratio): Papp B>A/Papp A>B; for efflux ratio at 1 h, 10 μM / Papp A→B at 1 h, 10 μM: dog; for Papp A→B at 1 h, 10 μM: pH 7.4, read-out: Papp AB MDR1. The method, boiled down:
(§1)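 Bidirectional transport measured over 1 h at 37 °C with 10 μM test compound (0.1% DMSO) in pH 7.4 HEPES-buffered HBSS across MDR1-transfected and wild-type MDCK monolayers, analysed by LC-MS/MS. Efflux ratio is B>A over A>B Papp; effective efflux ratio divides MDR1-MDCK ER by wild-type ER.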

In data set [2] the test system is wild-type (WT) MDCK cells. Briefly: Wild-type MDCK permeability and efflux assay (Papp, efflux ratio). It counts as in vitro ADME. Conditions: for Papp AB WT: A->B; for ER WT (Efflux Ratio): Papp B>A/Papp A>B. The method, boiled down:
as §1

Experiment in data set [3]: as above
It counts as in vitro ADME. Conditions: dog, pH 7.4, wild-type MDCK cells; for efflux ratio at 1 h, 10 μM: Papp B>A/Papp A>B, read-out: ER WT (Efflux Ratio). The method, boiled down:
as §1

[4] abbreviates: MDCK-MDR1, pH 7.4, ER(MDR1-MDCK)/ER(wild-type MDCK), read-out: EER (Effective Efflux Ratio).
[5] abbreviates: MDCK-MDR1, pH 7.4, Papp B>A/Papp A>B, MDR1-MDCK cells, read-out: ER MDR1 (Efflux Ratio).

T2 sequence (P08183 whole entry): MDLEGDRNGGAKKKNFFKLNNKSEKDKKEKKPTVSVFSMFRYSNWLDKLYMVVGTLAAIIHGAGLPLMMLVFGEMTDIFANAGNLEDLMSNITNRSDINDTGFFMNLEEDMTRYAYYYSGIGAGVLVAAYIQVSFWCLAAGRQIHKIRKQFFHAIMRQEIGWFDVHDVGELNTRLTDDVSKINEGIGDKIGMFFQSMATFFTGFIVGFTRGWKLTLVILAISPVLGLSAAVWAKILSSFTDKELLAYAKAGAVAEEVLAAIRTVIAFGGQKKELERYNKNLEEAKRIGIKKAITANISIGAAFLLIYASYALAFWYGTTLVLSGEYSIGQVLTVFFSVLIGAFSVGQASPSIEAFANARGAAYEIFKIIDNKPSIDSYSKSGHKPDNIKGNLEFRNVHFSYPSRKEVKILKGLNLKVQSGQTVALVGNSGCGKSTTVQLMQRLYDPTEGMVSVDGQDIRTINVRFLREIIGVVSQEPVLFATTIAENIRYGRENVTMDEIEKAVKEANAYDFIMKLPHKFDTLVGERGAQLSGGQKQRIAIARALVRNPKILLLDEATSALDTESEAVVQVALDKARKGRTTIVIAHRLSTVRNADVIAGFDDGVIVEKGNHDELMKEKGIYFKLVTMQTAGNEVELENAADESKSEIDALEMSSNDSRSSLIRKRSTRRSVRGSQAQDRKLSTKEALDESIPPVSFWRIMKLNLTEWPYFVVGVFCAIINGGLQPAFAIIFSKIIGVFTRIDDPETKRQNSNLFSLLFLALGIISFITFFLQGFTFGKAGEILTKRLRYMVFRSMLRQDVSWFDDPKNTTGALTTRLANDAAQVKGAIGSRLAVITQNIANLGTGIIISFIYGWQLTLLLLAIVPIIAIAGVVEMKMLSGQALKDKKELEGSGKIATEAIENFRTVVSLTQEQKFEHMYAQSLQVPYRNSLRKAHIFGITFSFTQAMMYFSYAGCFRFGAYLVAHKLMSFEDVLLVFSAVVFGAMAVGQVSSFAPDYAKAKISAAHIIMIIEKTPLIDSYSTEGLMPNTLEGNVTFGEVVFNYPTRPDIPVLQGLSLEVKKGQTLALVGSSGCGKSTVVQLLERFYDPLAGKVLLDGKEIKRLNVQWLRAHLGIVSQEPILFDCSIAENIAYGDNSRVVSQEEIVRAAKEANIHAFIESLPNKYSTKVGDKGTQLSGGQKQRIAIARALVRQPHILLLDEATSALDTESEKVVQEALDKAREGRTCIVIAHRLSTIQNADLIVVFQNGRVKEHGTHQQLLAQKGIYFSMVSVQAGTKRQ
T1 sequence (P30518 whole entry): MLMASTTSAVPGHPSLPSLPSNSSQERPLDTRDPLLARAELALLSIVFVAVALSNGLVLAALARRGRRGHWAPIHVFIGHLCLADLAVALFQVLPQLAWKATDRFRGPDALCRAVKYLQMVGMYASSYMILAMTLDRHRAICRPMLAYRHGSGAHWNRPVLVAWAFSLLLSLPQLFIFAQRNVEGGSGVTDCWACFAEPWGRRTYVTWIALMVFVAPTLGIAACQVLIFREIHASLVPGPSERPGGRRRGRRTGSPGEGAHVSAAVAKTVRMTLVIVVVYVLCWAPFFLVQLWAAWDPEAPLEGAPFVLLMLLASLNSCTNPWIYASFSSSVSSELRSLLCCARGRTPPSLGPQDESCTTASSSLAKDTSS

For the molecule `CC1COc2cc(F)ccc2N1C(=O)N1CC2(C1)CN(c1ccc(F)cn1)C2` (single isomer, unassigned) [12-1-B], the IC50 (in general, the point on the concentration scale where inhibition reaches its midpoint) in data set [1] is 100 to 500 nM. On MDR1 (P-glycoprotein) (MDR1-MDCK cells), the “Papp AB MDR1” value is “++++ (>20 (10^−6 cm/sec) is highly permeable (++++))” and the “ER MDR1 (Efflux Ratio)” value is given as “++++ (efflux ratio or effective efflux ratio of <1 has low probability of being an efflux substrate (++++))”. Further, the “EER (Effective Efflux Ratio)” value at MDR1 (P-glycoprotein) is listed as “+++ (>1 but <2 has moderate probability of being an efflux substrate (+++))”. Also, in data set [2], the “Papp AB WT” value was “++++ (>20 (10^−6 cm/sec) is highly permeable (++++))” and the “ER WT (Efflux Ratio)” value was “++++ (efflux ratio or effective efflux ratio of <1 has low probability of being an efflux substrate (++++))”.
Turning to `CC1COc2cc(Cl)ccc2N1C(=O)N1CC2(C1)CN(c1cc(C#N)ccn1)C2` (single isomer, unassigned) [20-6-B], the IC50 in data set [1] was less than 100 nM. Moreover, at MDR1 (P-glycoprotein) (MDR1-MDCK cells), the “Papp AB MDR1” value is on record as “++++ (>20 (10^−6 cm/sec) is highly permeable (++++))” and the “ER MDR1 (Efflux Ratio)” value is “++++ (efflux ratio or effective efflux ratio of <1 has low probability of being an efflux substrate (++++))”. Moreover, the “EER (Effective Efflux Ratio)” value at MDR1 (P-glycoprotein) is recorded as “++++ (efflux ratio or effective efflux ratio of <1 has low probability of being an efflux substrate (++++))”. In addition, in data set [2], the “Papp AB WT” value is given as “++++ (>20 (10^−6 cm/sec) is highly permeable (++++))” and the “ER WT (Efflux Ratio)” value is “++++ (efflux ratio or effective efflux ratio of <1 has low probability of being an efflux substrate (++++))”.
For `Cc1cncc(N2CC3(CN(C(=O)N4c5ccc(F)cc5OCC4C)C3)C2)n1` (single isomer, unassigned) [20-2-B], the IC50 in data set [1] was less than 100 nM. In addition, at MDR1 (P-glycoprotein) (MDR1-MDCK cells), the “Papp AB MDR1” value is reported as “++++ (>20 (10^−6 cm/sec) is highly permeable (++++))” and the “ER MDR1 (Efflux Ratio)” value is “+++ (>1 but <2 has moderate probability of being an efflux substrate (+++))”. In addition, the “EER (Effective Efflux Ratio)” value at MDR1 (P-glycoprotein) is “+++ (>1 but <2 has moderate probability of being an efflux substrate (+++))”. In addition, in data set [2], the “Papp AB WT” value is reported as “++++ (>20 (10^−6 cm/sec) is highly permeable (++++))” and the “ER WT (Efflux Ratio)” value is listed as “++++ (efflux ratio or effective efflux ratio of <1 has low probability of being an efflux substrate (++++))”.
In turn, `O=C(N1CC2(C1)CN(c1ccccn1)C2)N1CCOc2cc(Cl)ccc21` [8-2] displayed a 50% inhibitory concentration (IC50) in data set [1] of no less than 1000 nM. The results for the efflux ratio at 1 h, 10 μM (at MDR1 (P-glycoprotein) (setting [4]); at MDR1 (P-glycoprotein) (setting [5]); in data set [3]) were 1 to 2, less than 1 and less than 1, respectively. Moreover, the Papp A→B at 1 h, 10 μM (on MDR1 (P-glycoprotein) (MDR1-MDCK cells); in data set [3]) was greater than 20 ×10⁻⁶ cm/s in each case.
In the case of `CC1COc2cc(F)c(F)cc2N1C(=O)N1CC2(C1)CN(c1ncccn1)C2` (single isomer, unassigned) [19-1-B], in data set [1], the IC50 was no less than 1000 nM. The results for the efflux ratio at 1 h, 10 μM (at MDR1 (P-glycoprotein) (setting [4]); on MDR1 (P-glycoprotein) (setting [5]); in data set [3]) were less than 1, 1 to 2 and 1 to 2, respectively. Moreover, the Papp A→B at 1 h, 10 μM (on MDR1 (P-glycoprotein) (MDR1-MDCK cells); in data set [3]) was greater than 20 ×10⁻⁶ cm/s throughout.
As for `O=C(N1CC2(C1)CN(c1ccc(F)cn1)C2)N1CCC(F)(F)c2cc(Cl)ccc21` [17-1, (6-chloro-4,4-difluoro-3,4-dihydroquinolin-1(2H)-yl)(6-(5-fluoropyridin-2-yl)-2,6-diazaspiro[3.3]heptan-2-yl)methanone], the half-inhibitory concentration (IC50) in data set [1] is no less than 1000 nM. Also, the efflux ratio at 1 h, 10 μM is 1 to 2 at MDR1 (P-glycoprotein) (setting [4]), less than 1 on MDR1 (P-glycoprotein) (setting [5]) and less than 1 in data set [3]. In addition, the Papp A→B at 1 h, 10 μM (at MDR1 (P-glycoprotein) (MDR1-MDCK cells); in data set [3]) was greater than 20 ×10⁻⁶ cm/s each time.
Regarding `Cc1nc(N2CC3(CN(C(=O)N4c5ccc(Cl)cc5OCC4C)C3)C2)ncc1F` (single isomer, unassigned) [20-7-B], the IC50 in data set [1] is less than 100 nM. At MDR1 (P-glycoprotein) (MDR1-MDCK cells), the “Papp AB MDR1” value is on record as “++++ (>20 (10^−6 cm/sec) is highly permeable (++++))” and the “ER MDR1 (Efflux Ratio)” value is on record as “++++ (efflux ratio or effective efflux ratio of <1 has low probability of being an efflux substrate (++++))”. Moreover, the “EER (Effective Efflux Ratio)” value at MDR1 (P-glycoprotein) is “+++ (>1 but <2 has moderate probability of being an efflux substrate (+++))”. Besides, in data set [2], the “Papp AB WT” value is “++++ (>20 (10^−6 cm/sec) is highly permeable (++++))” and the “ER WT (Efflux Ratio)” value is recorded as “++++ (efflux ratio or effective efflux ratio of <1 has low probability of being an efflux substrate (++++))”.
`CC1COc2cc(Cl)ccc2N1C(=O)N1CC2(C1)CN(c1noc3cccnc13)C2` (stereo not drawn) [18-3] had an IC50 in data set [1] of 100 to 500 nM. Besides, the efflux ratio at 1 h, 10 μM (on MDR1 (P-glycoprotein) (setting [4]); at MDR1 (P-glycoprotein) (setting [5]); in data set [3]) was less than 1 throughout. The Papp A→B at 1 h, 10 μM (on MDR1 (P-glycoprotein) (MDR1-MDCK cells); in data set [3]) was greater than 20 ×10⁻⁶ cm/s throughout.
Turning to `CC1COc2cc(F)ccc2N1C(=O)N1CC2(C1)CN(c1cc(C#N)ccn1)C2` (single isomer, unassigned) [20-3-B], the IC50 in data set [1] fell in the range of 100 to 500 nM. Further, the efflux ratio at 1 h, 10 μM was 1 to 2 on MDR1 (P-glycoprotein) (setting [4]), 1 to 2 at MDR1 (P-glycoprotein) (setting [5]) and less than 1 in data set [3]. Further, the Papp A→B at 1 h, 10 μM (at MDR1 (P-glycoprotein) (MDR1-MDCK cells); in data set [3]) was greater than 20 ×10⁻⁶ cm/s in each case.
With `COc1ccnc(N2CC3(CN(C(=O)N4c5ccc(Cl)cc5OCC4C)C3)C2)n1` (single isomer, unassigned) [20-9-B], the IC50 in data set [1] lay in the range of 100 to 500 nM. The efflux ratio at 1 h, 10 μM at MDR1 (P-glycoprotein) (setting [4]) was 1 to 2; on MDR1 (P-glycoprotein) (setting [5]), 1 to 2; in data set [3], less than 1. For the same molecule, the Papp A→B at 1 h, 10 μM (at MDR1 (P-glycoprotein) (MDR1-MDCK cells); in data set [3]) was greater than 20 ×10⁻⁶ cm/s each time.
